Like-named read-outs stand apart in the source and are kept apart here.
How the values were obtained:
[1] = target: T1, His-PLCγ2 protein (Homo sapiens, UniProt P16885); assay: Affinity selection mass spectrometry (ASMS); assay type: binding; conditions: dose range 100-0.05 μM, PLCγ2 400 nM
T1 sequence (P16885 1-1265): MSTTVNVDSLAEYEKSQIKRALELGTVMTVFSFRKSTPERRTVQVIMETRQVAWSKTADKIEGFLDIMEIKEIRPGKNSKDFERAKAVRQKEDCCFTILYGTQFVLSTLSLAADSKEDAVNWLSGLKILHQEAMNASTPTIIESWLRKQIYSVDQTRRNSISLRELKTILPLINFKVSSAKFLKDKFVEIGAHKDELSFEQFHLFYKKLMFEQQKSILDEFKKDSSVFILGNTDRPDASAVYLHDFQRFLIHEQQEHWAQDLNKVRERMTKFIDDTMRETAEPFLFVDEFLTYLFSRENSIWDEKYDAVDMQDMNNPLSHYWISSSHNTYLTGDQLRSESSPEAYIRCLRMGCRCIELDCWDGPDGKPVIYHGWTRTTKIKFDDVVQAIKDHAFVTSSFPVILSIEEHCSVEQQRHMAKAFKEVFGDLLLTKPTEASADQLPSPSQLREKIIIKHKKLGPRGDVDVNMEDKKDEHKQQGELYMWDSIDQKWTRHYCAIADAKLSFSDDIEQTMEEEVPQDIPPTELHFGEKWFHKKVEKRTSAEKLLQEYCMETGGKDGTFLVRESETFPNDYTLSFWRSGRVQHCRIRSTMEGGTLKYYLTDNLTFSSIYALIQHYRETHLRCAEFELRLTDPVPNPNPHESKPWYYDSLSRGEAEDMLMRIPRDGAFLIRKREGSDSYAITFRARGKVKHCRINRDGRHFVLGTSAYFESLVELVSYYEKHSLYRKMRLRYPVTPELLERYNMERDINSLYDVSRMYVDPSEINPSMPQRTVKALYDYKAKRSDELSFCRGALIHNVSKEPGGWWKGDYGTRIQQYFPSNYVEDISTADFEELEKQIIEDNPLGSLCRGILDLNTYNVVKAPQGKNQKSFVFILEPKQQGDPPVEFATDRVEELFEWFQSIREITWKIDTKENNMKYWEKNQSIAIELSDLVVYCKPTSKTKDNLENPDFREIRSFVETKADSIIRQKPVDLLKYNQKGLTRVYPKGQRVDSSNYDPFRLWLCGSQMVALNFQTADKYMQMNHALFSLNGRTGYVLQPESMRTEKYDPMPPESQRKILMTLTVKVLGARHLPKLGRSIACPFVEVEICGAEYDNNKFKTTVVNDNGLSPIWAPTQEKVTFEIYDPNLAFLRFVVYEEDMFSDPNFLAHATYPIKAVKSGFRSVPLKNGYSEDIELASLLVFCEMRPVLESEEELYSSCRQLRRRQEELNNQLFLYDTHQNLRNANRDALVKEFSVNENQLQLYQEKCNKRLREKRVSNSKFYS
Experimental: Using a dose range of 100-0.05 μM in 384 well low-volume polypropylene microtiter plates, a solution of PLCγ2 (final concentration 400 nM) was transferred to biochip arrays functionalized with a Tris-Ni-NTA-presenting self-assembled monolayer to immobilize the His-tagged protein. The arrays were incubated for 90 min in a humidified chamber to prevent evaporation and allow for specific immobilization of the His-PLCγ2 protein, along with any bound small molecules. The arrays were purified by a rapid <3 second gentle wash step with deionized ultra-filtered water and dried with compressed air. ASMS was performed using the reflector positive mode on an Aβ Sciex TOF-TOF 5800 System (Aβ Sciex, Framingham, MA).

[2] = target: T2, PLCγ2-HiBit (Homo sapiens, UniProt P16885); assay: Cellular thermal shift assay (SplitLuc CETSA), PLCγ2-HiBit in HMC3 cells; assay type: cell-based; conditions: for PLCγ2-HiBit %, percent luminescence at highest dose compared to control (DMSO): 100 μM; for PLCy2-HiBit % @100: Table 1
T2 construct: expressed in transfected cells; host or cells: HMC3 cells
T2 sequence (P16885 1-1265): T1 sequence (P16885 1-1265)
Excerpt: These compounds have been evaluated using a wide variety of assay classes namely target engagement utilizing cellular thermal shift assay (CETSA),^34 affinity selection mass spectrometry (ASMS),^35 biochemical activity employing the fluorogenic probe XY-69,^36 and cellular activity testing for phagocytosis. Cellular Thermal Shift Assays (CETSA) assess cellular target engagement by quantifying changes in protein thermal stability upon ligand binding to endogenous proteins in intact cells.^34 For SAR studies, a split Nano Luciferase (SplitLuc CETSA) version of the assay was utilized to provide sufficient throughput.^37,38 HMC3 cells were stably transfected with PLCγ2-HiBit to enable protein expression in a physiologically relevant cellular context. The thermal stability of this HiBit-labeled protein in intact cells was measured in the following two formats. In the initial screen, using 96-well plates, cells were treated with FBS analogs at a single concentration (100 μM) at 37° C. for 60 min and then exposed to a 3-minute isothermal heating step at 45.9° C. (experimentally determined Tm of PLCγ2-HiBit). Luminescence detection was then conducted with the Nano-Glo HiBit Lytic detection kit (Promega, Cat. N3040).^38 Compound treatment was performed in triplicate, and raw signals were normalized to the mean of the controls (in the same plate) as % of control. When the difference in compound-treated cells >control mean+3SD, the compound was considered positive and selected for further testing with dose-response CETSA. In the dose response CETSA, cells were treated with decreasing concentrations from 100 μM with 1:3 serial dilutions to generate an 8-point curve. An AC50 was calculated with the % of control data using a four-parameter logistic curve regression model, and the percent luminescence remaining at the highest concentration is also reported for the compounds when the difference from the DMSO control is greater than 3× the standard deviation (SD). Otherwise, an AC50 was not calculated.

[3] = tested on: HMC3 cells; assay: Microglial phagocytosis/cell health high-content assay, HMC3 cells; assay type: cell-based; conditions: 60 μM, 48 hrs, compared to control
Experimental: (§1) The assay introduced here is a simplified cellular imaging assay without any fixation and washing steps, while producing multiparameter measurements with high capacity using a 384-well plate format. The assay procedures include plating cells on day 1, incubating cell plates overnight before treating cells on day 2, adding pHrodo™-myelin/membrane debris to cell plates on day 3, and 20 hr later, staining cell nuclei with Hoechst-33342 for 30 min before performing high-content imaging on day 4. Three selected parameters are measured from cells: 1) mean total fluorescence intensity per cell of pHrodo™-myelin/membrane debris in phagocytosis vesicles to quantify phagocytosis; 2) cell counts per well to quantify treatment effects on proliferation and cell death; and 3) average nuclear intensity to quantify treatment-induced nuclear changes such as in apoptosis. The assay has been used on HMC3 cells (an immortalized human microglial cell line), BV2 cells (an immortalized mouse microglial cell line), and primary microglia isolated from mouse brains. For initial assay attempts, we recommend using HMC3 cells available from the ATCC.
(§2) All collected raw data are normalized to the untreated control with following formula: % of control=100×(X−Min)/(Max−Min). Factors in the formula are: X is raw data from a treated well, Max is an average measurement from pHrodo™-myelin seeded but untreated wells, and Min is an average measurement from no pHrodo™-myelin untreated wells. Normalized data are used for curve fitting that is done with the variable slope (four parameters) using the Prism software.
(§3) To ensure that the measurements reflect the steady state of compound treatment effects and cell health, the assay was set with a total compound treatment time of 48 hr, including pHrodo™-myelin/membrane debris seeding performed 20-24 hr after compound addition. […] Among many available quantitative measurements from the image analysis, we selected three parameters for the assay:
(§4) 1) The mean total intensity of phagocytosis vesicles/cell—to measure phagocytosis. There are multiple parameters generated from the image analysis, including phagocytosis vesicle area, number, and various fluorescence intensity measurements. Comparing these parameters, the total fluorescence intensity of vesicles/cell is the most sensitive one and was chosen for quantifying phagocytosis.
(§5) 2) The total cell counts—to measure overall cell viability, which is affected by proliferation and cell death. We chose to take 4 images/well (with the 10× objective lens) that cover about 50% of the total area of a well in a 384-well plate to represent cell count of the well.
(§6) 3) The average nuclear intensity—to measure drug-induced apoptosis, with high signal indicating nuclear condescension (a sign of early apoptosis) and low signal indicating DNA degradation (a sign of later apoptosis, when activated caspases digest DNA).
(§7) A phenotypic high-content imaging assay with simultaneous measurements of phagocytosis, cell number, and nuclear intensity was used to assess both cellular pharmacology and cell health. Model cell lines BV2 (immortalized mouse microglia, a gift from Dr. Michelle Block's laboratory at IUSM) and HMC3 (immortalized human microglia, obtained from ATCC, CRL-3304) were used to provide adequate throughput. Cells were cultured in DMEM GlutaMax media (ThermoFisher) containing 10% FBS and Pen-Strep in a 37° C. 5% CO2 incubator, plated in Corning Falcon 384 well Optilux Black and clear bottom plates: 400 cells/45 μl/well (BV2 cells), 600 cells/45 μl/well (HMC3 cells) and 2000 cell/45 μl/well (primary cells), and treated with 10× serially diluted compounds (60 μM-3 nM) for 48 hrs at 37° C. […]

[4] = tested on: BV2 cells; assay: Microglial phagocytosis/cell health high-content assay, BV2 cells; assay type: cell-based; conditions: 60 μM, 48 hrs, compared to control
Experimental: as §1, §2, §3, §4, §5, §6, §7

[5] = tested on: MDCK; assay: MDCK permeability; assay type: in vitro ADME; conditions: estimate of intestinal absorption
Experimental: (§8) Physicochemical and ADME properties were determined using the following assays: microsomal stability intrinsic clearance (Clint) in mouse liver microsomal solution, MDCK permeability (Papp), protein binding (fu) in mouse plasma, and kinetic solubility in pH 7.4 phosphate buffer (Table 7).

[6] = Protein binding in mouse plasma; assay type: in vitro ADME
Experimental: as §8

[7] = Kinetic solubility in pH 7.4 phosphate buffer; assay type: physicochemical
Experimental: as §8

[8] = tested on: HiBit only; assay: Cellular thermal shift assay (CETSA), HiBit only control; assay type: cell-based, human
[9] = Microsomal stability intrinsic clearance; assay type: in vitro ADME; conditions: mouse liver microsomes
Experimental: as §8

[10] = tested on: HMC3 cells; assay: Microglial phagocytosis/cell health high-content assay, HMC3 cells; assay type: cell-based; conditions: 24-hr treatment

SMILES | target engagement, signal against background [1] | PLCγ2-HiBit %, percent luminescence at highest dose compared to control (DMSO) [2] | PLCy2-HiBit % @100 [2] | Ave. % Cell Count @ 60 uM HMC3 cells [3] | Ave. % Phagocytosis @ 60 uM HMC3 cells [3] | Ave. % Cell Count @ 60 uM BV2 cells [4] | Ave. % Phagocytosis @ 60 uM BV2 cells [4] | Papp, MDCK permeability [5] | fu, fraction unbound [6] | Kinetic solubility [7] | HiBit only %, percent luminescence at highest dose with HiBit only compared to control (DMSO) ([8]; 100 μM) | HiBit only % @100 μM ([8]; Table 1, @100 μM) | Clint, intrinsic clearance [9] | IC50 ([10]; read-out: cell count (inhibition of cell proliferation) IC50) | EC50 ([10]; read-out: increase of nuclear intensity EC50) | IC50 ([10]; read-out: inhibition of phagocytosis IC50)
Nc1ncnc2c1ncn2[C@@H]1O[C@H](COP(=O)(O)OP(=O)(O)OP(=O)(O)O)[C@@H](O)[C@H]1O [ATP] | clear separation from background signal | – | – | – | – | – | – | – | – | – | – | – | – | – | – | –
Cc1cc(C)c(S(=O)(=O)Nc2cccc(C#N)c2)c(C)c1 [Compound 3] | – | 96% | 96% | 79% | 111% | 85% | 113% | 69.8 ×10−^6 cm/s | 0.0003 | 81 to 100 µM | – | – | – | – | – | –
O=S(=O)(Nc1cccc(C(F)(F)F)c1)c1ccccc1 [Compound 4] | – | 65% | 65% | 84% | 89% | 95% | 106% | 79.7 ×10−^6 cm/s | – | >100 µM | 82% | 82% | 607.66 µL/min/mg | – | – | –
C=C1[C@@H](C)[C@H]2[C@H](Cc3ccccc3)NC(=O)[C@]23[C@H](OC(C)=O)/C=C/[C@@](C)(O)C(=O)[C@@H](C)C/C=C/[C@H]3[C@@H]1O [Cytochalasin D] | – | – | – | – | – | – | – | – | – | – | – | – | – | 367 nM | 488 nM | 138 nM
